Molecules are shown by their SMILES.

For the assay, the target named is T1, CFTR (F508del/MF-HBE cells) (Homo sapiens, UniProt P13569, DEL508-508).
T1 construct: human bronchial epithelial (HBE) cells derived from CF subjects heterozygous for F508del and a minimal function CFTR mutation (F508del/MF-HBE); endogenous in cells; host or cells: primary human bronchial epithelial (HBE) cells from CF subjects, genotype F508del/minimal function
T1 sequence (P13569 with tags, fused parts or gaps DEL508-508): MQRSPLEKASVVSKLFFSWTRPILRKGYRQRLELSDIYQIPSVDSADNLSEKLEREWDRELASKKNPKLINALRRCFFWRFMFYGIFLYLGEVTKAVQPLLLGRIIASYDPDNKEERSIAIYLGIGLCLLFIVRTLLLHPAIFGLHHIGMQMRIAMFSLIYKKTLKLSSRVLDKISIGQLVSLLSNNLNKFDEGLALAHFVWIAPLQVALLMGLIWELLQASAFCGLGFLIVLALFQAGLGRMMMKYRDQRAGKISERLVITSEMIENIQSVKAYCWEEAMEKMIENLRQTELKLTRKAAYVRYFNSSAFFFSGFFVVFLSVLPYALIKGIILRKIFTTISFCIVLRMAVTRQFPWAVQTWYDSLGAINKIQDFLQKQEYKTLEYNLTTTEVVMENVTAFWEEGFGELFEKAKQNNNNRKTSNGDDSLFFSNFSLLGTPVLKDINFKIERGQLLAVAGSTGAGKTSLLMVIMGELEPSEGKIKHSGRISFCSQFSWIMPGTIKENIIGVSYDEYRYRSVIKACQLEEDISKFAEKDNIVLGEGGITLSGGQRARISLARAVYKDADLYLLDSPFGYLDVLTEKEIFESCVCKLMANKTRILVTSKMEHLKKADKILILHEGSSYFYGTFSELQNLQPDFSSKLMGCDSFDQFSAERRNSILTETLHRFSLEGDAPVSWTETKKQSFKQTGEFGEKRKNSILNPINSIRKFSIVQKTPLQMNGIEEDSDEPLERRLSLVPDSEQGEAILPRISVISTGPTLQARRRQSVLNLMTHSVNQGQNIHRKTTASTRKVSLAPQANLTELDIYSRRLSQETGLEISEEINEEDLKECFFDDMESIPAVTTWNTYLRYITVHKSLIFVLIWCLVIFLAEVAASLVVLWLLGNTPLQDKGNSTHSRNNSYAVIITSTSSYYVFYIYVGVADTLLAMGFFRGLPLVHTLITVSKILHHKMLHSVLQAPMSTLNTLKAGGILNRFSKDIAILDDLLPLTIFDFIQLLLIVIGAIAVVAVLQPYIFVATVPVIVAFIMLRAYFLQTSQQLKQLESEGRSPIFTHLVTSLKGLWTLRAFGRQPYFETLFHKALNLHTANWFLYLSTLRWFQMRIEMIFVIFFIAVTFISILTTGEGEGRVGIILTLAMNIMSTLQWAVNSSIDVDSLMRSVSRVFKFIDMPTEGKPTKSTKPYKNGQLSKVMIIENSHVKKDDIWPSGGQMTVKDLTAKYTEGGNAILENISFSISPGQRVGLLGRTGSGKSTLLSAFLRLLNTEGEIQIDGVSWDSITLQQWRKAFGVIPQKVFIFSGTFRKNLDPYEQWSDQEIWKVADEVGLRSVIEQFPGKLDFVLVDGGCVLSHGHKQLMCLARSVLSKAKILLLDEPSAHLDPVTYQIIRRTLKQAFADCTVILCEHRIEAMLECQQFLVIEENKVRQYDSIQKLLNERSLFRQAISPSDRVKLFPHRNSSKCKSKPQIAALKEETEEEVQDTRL
In words: Ussing chamber assay of CFTR-mediated short-circuit currents (potentiator identification). It counts as cell-based. The conditions noted are these: CFTR-mediated Isc, 18-24 h incubation at 37° C. with 10 μM (14S)-8-[3-(2-{dispiro[2.0.2.1]heptan-7-yl}ethoxy)-1H-pyrazol-1-yl]-... corrector, 20% human serum. The protocol:
Ussing Chamber Assay of CFTR-Mediated Short-Circuit Currents
Ussing chamber experiments were performed using human bronchial epithelial (HBE) cells derived from CF subjects heterozygous for F508del and a minimal function CFTR mutation (F508del/MF-HBE) and cultured as previously described (Neuberger T, Burton B, Clark H, Van Goor F Methods Mol Biol 2011:741:39-54). After four days the apical media was removed, and the cells were grown at an air liquid interface for >14 days prior to use.
To isolate the CFTR-mediated short-circuit (Isc) current, F508del/MF-HBE grown on Costar® Snapwell™ cell culture inserts were mounted in an Ussing chamber and the transepithelial ISC was measured under voltage-clamp recording conditions (Vhold=0 mV) at 37° C. The basolateral solution contained (in mM) 145 NaCl, 0.83 K2HPO4, 3.3 KH2PO4, 1.2 MgCl2, 1.2 CaCl2, 10 Glucose, 10 HEPES (pH adjusted to 7.4 with NaOH) and the apical solution contained (in mM) 145 NaGluconate, 1.2 MgCl2, 1.2 CaCl2, 10 glucose, 10 HEPES (pH adjusted to 7.4 with NaOH) and 30 μM amiloride to block the epithelial sodium channel. Forskolin (20 μM) was added to the apical surface to activate CFTR, followed by apical addition of a CFTR inhibitor cocktail consisting of BPO, GlyH-101 and CFTR inhibitor 172 (each at 20 μM final assay concentration) to specifically isolate CFTR currents. The CFTR-mediated Isc (μA/cm^2) for each condition was determined from the peak forskolin response to the steady-state current following inhibition.
Identification of Potentiator Compounds
The activity of the CFTR potentiator compounds on the CFTR-mediated Isc was determined in Ussing chamber studies as described above. The F508del/MF-HBE cell cultures were incubated with the potentiator compounds at a range of concentrations in combination with 10 μM (14S)-8-[3-(2-{dispiro[2.0.2.1]heptan-7-yl}ethoxy)-1H-pyrazol-1-yl]-12,12-dimethyl-2λ^6-thia-3,9,11,18,23-pentaazatetracyclo[17.3.1.111,14.05,10]tetracosa-1(22),5,7,9,19(23),20-hexaene-2,2,4-trione for 18-24 hours at 37° C. and in the presence of 20% human serum. The concentration of potentiator compounds and (14S)-8-[3-(2-{dispiro[2.0.2.1]heptan-7-yl}ethoxy)-1H-pyrazol-1-yl]-12,12-dimethyl-2λ^6-thia-3,9,11,18,23-pentaazatetracyclo[17.3.1.111,14.05,10]tetracosa-1(22),5,7,9,19(23),20-hexaene-2,2,4-trione used during the 18-24 hours incubations was kept constant throughout the Ussing chamber measurement of the CFTR-mediated Isc to ensure compounds were present throughout the entire experiment. The efficacy and potency of the putative F508del potentiators was compared to that of the known Vertex potentiator, ivacaftor (N-[2,4-bis(1,1-dimethylethyl)-5-hydroxyphenyl]-1,4-dihydro-4-oxoquinoline-3-carboxamide).
With `OC1(C(F)(F)F)CCCCCCOc2nc(ccc2C(F)(F)F)C2=NN=C1O2` (racemic) [Compound 1, 6,15-bis(trifluoromethyl)-13,19-dioxa-3,4,18-triazatricyclo[12.3.1.12,5]nonadeca-1(17),2,4,14(18),15-pentaen-6-ol], the concentration giving a half-maximal response (EC50) was more than 1000 nM. With `Nc1cc(C(F)(F)F)c2nc1-c1nnc(o1)C(O)(C(F)(F)F)CCCCCCO2` (racemic) [Compound 4, 17-Amino-6,15-bis(trifluoromethyl)-13,19-dioxa-3,4,18-triazatricyclo[12.3.1.12,5]nonadeca-1(18),2,4,14,16-pentaen-6-ol], the concentration giving a half-maximal response (EC50) is less than 500 nM. The figure for `OC1(C(F)(F)F)CCCCCCOc2nc(ccc2C(F)(F)F)C2=NN=C1O2` (single isomer, unassigned) [Compound 3, 6,15-bis(trifluoromethyl)-13,19-dioxa-3,4,18-triazatricyclo[12.3.1.12,5]nonadeca-1(17),2,4,14(18),15-pentaen-6-ol] is more than 1000 nM. For `Nc1cc(C(F)(F)F)c2nc1-c1nnc(o1)[C@@](O)(C(F)(F)F)CCCCCCS2(=O)=O` (single isomer, unassigned) [Compound 9], the EC50 was less than 500 nM.

As to `Nc1cc(C(F)(F)F)c2nc1-c1nnc(o1)C(O)(C(F)(F)F)CCCCCS2(=O)=O` (single isomer, unassigned) [Compound 15, 16-amino-12,12-dioxo-6,14-bis(trifluoromethyl)-18-oxa-12λ^6-thia-3,4,17-triazatricyclo[11.3.1.12,5]octadeca-1(17),2,4,13,15-pentaen-6-ol], the EC50 is less than 500 nM.

Turning to `Nc1cc(C(F)(F)F)c2nc1-c1nnc(o1)[C@@](O)(C(F)(F)F)CCCCC[S+]2[O-]` (single isomer, unassigned) [Compound 23], the 50% effective concentration (EC50) was more than 1000 nM. The figure for `Nc1cc(C(F)(F)F)c2nc1-c1nnc(o1)[C@@](O)(C(F)(F)F)CCCCC[S+]2[O-]` (single isomer, unassigned) [Compound 24] is more than 1000 nM; for `Nc1cc(C(F)(F)F)c2nc1-c1nnc(o1)C(O)(C(F)(F)F)CCCCc1cccc(c1)O2` (single isomer, unassigned) [Compound 27, 20-amino-6,18-bis(trifluoromethyl)-16,23-dioxa-3,4,21-triazatetracyclo[15.3.1.12,5.111,15]tricosa-1(21),2,4,11(22),12,14,17,19-octaen-6-ol] it is less than 500 nM.

Regarding `Nc1cc(C(F)(F)F)c2nc1-c1nnc(o1)C(O)(C(F)(F)F)CCCCc1cccc(c1)O2` (single isomer, unassigned) [Compound 28, 20-amino-6,18-bis(trifluoromethyl)-16,23-dioxa-3,4,21-triazatetracyclo[15.3.1.12,5.111,15]tricosa-1(21),2,4,11(22),12,14,17,19-octaen-6-ol], the 50% effective concentration (EC50) was more than 1000 nM. The figure for `CC1CCC(O)(C(F)(F)F)C2=NN=C(O2)c2nc(c(C(F)(F)F)cc2N)Oc2cccc1c2` (single isomer, unassigned) [Compound 30, 19-amino-9-methyl-6,17-bis(trifluoromethyl)-15,22-dioxa-3,4,20-triazatetracyclo[14.3.1.12,5.110,14]docosa-1(20),2,4,10(21),11,13,16,18-octaen-6-ol] is less than 500 nM; for `Nc1cc(C(F)(F)F)c2nc1-c1nnc(o1)C(O)(C(F)(F)F)CCCCc1cc(F)cc(c1)O2` (single isomer, unassigned) [Compound 31, 20-amino-13-fluoro-6,18-bis(trifluoromethyl)-16,23-dioxa-3,4,21-triazatetracyclo[15.3.1.12,5.111,15]tricosa-1(21),2,4,11(22),12,14,17,19-octaen-6-ol] it is less than 500 nM; for `Nc1cc(C(F)(F)F)c2nc1-c1nnc(o1)C(O)(C(F)(F)F)CCCCc1cc(F)cc(c1)O2` (single isomer, unassigned) [Compound 32, 20-amino-13-fluoro-6,18-bis(trifluoromethyl)-16,23-dioxa-3,4,21-triazatetracyclo[15.3.1.12,5.111,15]tricosa-1(21),2,4,11(22),12,14,17,19-octaen-6-ol] it is more than 1000 nM. The figure for `CC1CCC(O)(C(F)(F)F)C2=NN=C(O2)c2nc(c(C(F)(F)F)cc2N)Oc2cc(F)cc1c2` (single isomer, unassigned) [Compound 33, 19-amino-12-fluoro-9-methyl-6,17-bis(trifluoromethyl)-15,22-dioxa-3,4,20-triazatetracyclo[14.3.1.12,5.110,14]docosa-1(20),2,4,10(21),11,13,16,18-octaen-6-ol] is less than 500 nM. The figure for `CC(C)C1CCCCC[C@](O)(C(F)(F)F)C2=NN=C(O2)c2nc(c(C(F)(F)F)cc2N)O1` (single isomer, unassigned) [Compound 34] is less than 500 nM. On to `CC(C)C1CCCCC[C@](O)(C(F)(F)F)C2=NN=C(O2)c2nc(c(C(F)(F)F)cc2N)O1` (single isomer, unassigned) [Compound 35], for which the EC50 was less than 500 nM. Consider `C[C@H]1Oc2nc(c(N)cc2C(F)(F)F)C2=NN=C(O2)[C@@](O)(C(F)(F)F)CCCCC1O` (single isomer, unassigned) [Compound 40], for which the EC50 is less than 500 nM. The figure for `C[C@H]1Oc2nc(c(N)cc2C(F)(F)F)C2=NN=C(O2)[C@@](O)(C(F)(F)F)CCCCC1O` (single isomer, unassigned) [Compound 41] is less than 500 nM; for `C[C@@H]1CCC(O)CC[C@](O)(C(F)(F)F)C2=NN=C(O2)c2nc(c(C(F)(F)F)cc2N)O1` (single isomer, unassigned) [Compound 42] it is less than 500 nM; for `C[C@@H]1CC(O)CCC[C@](O)(C(F)(F)F)C2=NN=C(O2)c2nc(c(C(F)(F)F)cc2N)O1` (single isomer, unassigned) [Compound 43] it is less than 500 nM. On to `C[C@@H]1CCC(O)CC[C@](O)(C(F)(F)F)C2=NN=C(O2)c2nc(c(C(F)(F)F)cc2N)O1` (single isomer, unassigned) [Compound 45], for which the EC50 is less than 500 nM. The figure for `C[C@@H]1CC(O)CCC[C@](O)(C(F)(F)F)C2=NN=C(O2)c2nc(c(C(F)(F)F)cc2N)O1` (single isomer, unassigned) [Compound 46] is less than 500 nM. The figure for `Nc1cc(C(F)(F)F)c2nc1-c1nnc(o1)[C@@](O)(C(F)(F)F)CCCCCC(CC1CC1)O2` (single isomer, unassigned) [Compound 47] is less than 500 nM; for `Nc1cc(C(F)(F)F)c2nc1-c1nnc(o1)[C@@](O)(C(F)(F)F)CCCCCC(CC1CC1)O2` (single isomer, unassigned) [Compound 48] it is less than 500 nM. The figure for `Nc1cc(C(F)(F)F)c2nc1-c1nnc(o1)[C@@](O)(C(F)(F)F)CCCCCC(Cc1ccc(F)cc1)O2` (single isomer, unassigned) [Compound 49] is less than 500 nM; for `Nc1cc(C(F)(F)F)c2nc1-c1nnc(o1)[C@@](O)(C(F)(F)F)CCCCCC(Cc1ccc(F)cc1)O2` (single isomer, unassigned) [Compound 50] it is less than 500 nM; for `CC(C)(C)c1cccc(CC2CCCCC[C@](O)(C(F)(F)F)C3=NN=C(O3)c3nc(c(C(F)(F)F)cc3N)O2)c1` (single isomer, unassigned) [Compound 51] it is less than 500 nM. In the case of `CC(C)(C)c1cccc(CC2CCCCC[C@](O)(C(F)(F)F)C3=NN=C(O3)c3nc(c(C(F)(F)F)cc3N)O2)c1` (single isomer, unassigned) [Compound 52], the EC50 is less than 500 nM.

For the origin of these results see patent publication US12269831B2, “Modulators of cystic fibrosis transmembrane conductance regulator” (Vertex Pharmaceuticals Incorporated, priority 2020, dated 2025).
